# Source: patent US6458764B1, “GRF analogs with increased biological potency” (Theratechnologies Inc., priority 1995, dated 2002)
# Key:
# Assay type in all cases: in vivo, pigs (Landrace x Yorkshire)
# serum IGF-I [1] = test: Comparative effects of GRF analogs on IGF-I levels in pigs (Example II, D-IGF-I, FIG. 1); settings: 20 μg/kg 2×/day S.C., days 1 to 5, n=8 pigs per group
# Protocol: This was a 5-day treatment, twice a day S.C. administration of one single dose of each test article vs saline. This experiment was conducted to compare the efficacy of (Aminohexanoyl)0 hGRF (1-29) NH2, (Hexylformiate)0 hGRF (1-29) NH2, (Hexenoyl trans-2)0 hGRF (1-29) NH2, (Hexenoyl trans-3)0 hGRF (1-29) NH2 and (Muconoyl)0 hGRF (1-29) NH2 to that of(Hexanoyl)0 hGRF (1-29) NH2.
# ADMINISTRATION: Two daily subcutaneous injections.
# (§1) TEST SYSTEM: Landrace x Yorkshire pigs.
# ANIMAL DESCRIPTION: Fifty six (56) growing barrows pigs weighing 35 kg at the time of purchase.
# DESIGN: Fifty six (56) pigs were randomly distributed into 7 experimental groups (n=8 pigs per group). Each group received two daily S.C. administration of the following treatments (volume: 3 ml, S.C. injection).
# Treatments were administered from day 1 to 5. Immediately before the injections, one blood sample were collected from each animal, and additional blood samples were collected on day 6.
# Blood samples were allowed to clot, serum was harvested by centrifugation and submitted to IGF-I assays.
# Results are shown in FIG. 1 as D-IGF-I, which is defined as the increase in IGF-I levels from day 1 (pretreatment levels) to day 6 (after 5 days of GRFs administrations).
# serum IGF-I [2] = test: Repeated S.C. administrations of GRF analogs, serum IGF-I levels in pigs (Example I, Experiments 1-3; radioimmunoassay); settings: for serum IGF-I, Day 1 (pretreatment): pretreatment baseline; for increase in IGF-I levels: 20 μg/kg BID SC, P<0.05
# Protocol: The objective of these experiments was to assess the potential of the GRF analogs as anabolic agents.
# Therefore, in order to investigate the anabolic potency of the fatty acid-GRF analogs, their ability to increase IGF-I levels following repeated S.C. administrations in pig was evaluated.
# 26 Landrace x Yorkshire castrated male pigs (40-45 kg BW) were randomly distributed into 4 experimental groups:
# Each animal was injected BID (twice a day) subcutaneously for 4 consecutive days. One blood sample was collected each morning prior to the first injection of the day, and the day after the last injection, for IGF-I measurement.
# 40 Landrace x Yorkshire castrated male pigs (40-45 kg BW) were randomly distributed into 5 experimental groups:
# (§2) Each animal was injected BID (twice a day) subcutaneously for 5 consecutive days. One blood sample was collected each morning prior to the first injection of the day, and the day after the last injection, for IGF-I measurement.
# 48 Landrace x Yorkshire castrated male pigs (40-45 kg BW) were randomly distributed into 6 experimental groups:
# as §2, with “The selected doses were 30 μg/kg for hGRF(1-44)NH2 analogs and 20 μg/kg for hGRF(1-29)NH2 analogs, which give identical doses on a molar basis. Each” for “Each”, “measurements.” for “measurement.”
# IGF-I levels were measured in pig serum by double antibody radioimmunoassay after formic acid-acetone extraction, as previously described (Abribat T. et al., 1993, J. Endocrinol., 39:583-589). The extraction prior to radioimmunoassay is a necessary step to remove endogenous IGF-binding proteins.
# In both experiments, the IGF-I data were analyzed by a two way repeated measure analysis of variance, with day and treatment (GRF analog) as sources of variation. Multiple comparison procedures were there run (Student-Newman Keuls method). A P<0.05 was considered as statistically significant.
# pig serum GH [3] = test: Intravenous GH-releasing potency in pigs (Example III); settings: for effect on GH area under the curve (0 to 300 minutes following injection): I.V., FIG. 3
# Protocol: This experiment was conducted to test the I.V. acute GH-releasing potency of (Hexenoyl trans-3)0 hGRF (1-29) NH2, a GRF analog, in a model physiologically close to human and to compare it to that of hGRF(1-29)NH2.
# (Hexenoyl trans-3)0 hGRF (1-29) NH2 is a combination of the natural hGRF(1-29)NH2 and natural fatty acids. This study was a multidose, single I.V. injection study.
# ADMINISTRATION: intravenous acute injection.
# as §1
# DESIGN: […] pigs (4 spare animals) were cannulated (a catheter surgically implanted in one jugular vein) within on week, before the study. On days 1 and 7, cannulated animals were randomly distributed into 7 groups (n=4 pigs per group).
# Blood samples for pGH assay were collected every 20 min from 1 hour before to 5 hours after GRF injections, with additional samplings 10 and 30 min after injection (n=21 samples). Blood samples are allowed to clot at +4° C. Serum will be harvested by centrifugation, stored at −20° C. and submitted to pGH assays.
# pig serum GH [4] = test: Subcutaneous GH-releasing potency in pigs (Example IV); settings: for effect on GH area under the curve, 0 to 420 minutes following injection: S.C., FIG. 5
# Protocol: This experiment was conducted to test the S.C. acute GH-releasing potency of (Hexenoyl trans-3)0 hGRF (1-29) NH2, a GRF analog, in a model physiologically close to human and to compare it to that of hGRF(1-29)NH2.
# ADMINISTRATION: Subcutaneous acute injection.
# as §1
# DESIGN: Thirty six (36) pigs (4 spare animals) were cannulated (a catheter surgically implanted in one jugular vein) within one week, before the study. On days 1 and 7, cannulated animals were randomly distributed into 8 groups (n=4 pigs per group).
# Blood samples for pGH assay were collected every 20 min from 1 hour before to 7 hours after GRF injections, (n=25 samples). Blood samples were allowed to clot at +4CC. Serum is harvested by centrifugation, stored at −20° C. and submitted to pGH assays.
# [5] = Experiment 1, 20 μg/kg BID SC × 4 days, mean of 6 to 7
# [6] = Experiment 2, 10 μg/kg BID SC × 5 days, mean of 8
# [7] = Experiment 2, 20 μg/kg BID SC × 5 days, mean of 8
# [8] = Experiment 2, 40 μg/kg BID SC × 5 days, mean of 8
# [9] = Experiment 3, 20 μg/kg BID SC × 5 days, mean of 8
# [10] = one intravenous injection, 4 μg/kg, FIG. 2
substance,measurement,setting,value
"(Hexanoyl)0 hGRF (1-29) NH2 (YADAIFTNSYRKVLGQLSARKLLQDIMSR; HELM PEPTIDE1{[CCCCCC(=O)[*:2]].Y.A.D.A.I.F.T.N.S.Y.R.K.V.L.G.Q.L.S.A.R.K.L.L.Q.D.I.M.S.R.[am]}$$$$V2.0; SMILES CCCCCC(=O)N[C@@H](Cc1ccc(O)cc1)C(=O)N[C@@H](C)C(=O)N[C@@H](CC(=O)O)C(=O)N[C@@H](C)C(=O)N[C@H](C(=O)N[C@@H](Cc1ccccc1)C(=O)N[C@H](C(=O)N[C@@H](CC(N)=O)C(=O)N[C@@H](CO)C(=O)N[C@@H](Cc1ccc(O)cc1)C(=O)N[C@@H](CCCNC(=N)N)C(=O)N[C@@H](CCCCN)C(=O)N[C@H](C(=O)N[C@@H](CC(C)C)C(=O)NCC(=O)N[C@@H](CCC(N)=O)C(=O)N[C@@H](CC(C)C)C(=O)N[C@@H](CO)C(=O)N[C@@H](C)C(=O)N[C@@H](CCCNC(=N)N)C(=O)N[C@@H](CCCCN)C(=O)N[C@@H](CC(C)C)C(=O)N[C@@H](CC(C)C)C(=O)N[C@@H](CCC(N)=O)C(=O)N[C@@H](CC(=O)O)C(=O)N[C@H](C(=O)N[C@@H](CCSC)C(=O)N[C@@H](CO)C(=O)N[C@@H](CCCNC(=N)N)C(N)=O)[C@@H](C)CC)C(C)C)[C@@H](C)O)[C@@H](C)CC; UniProt P01286 32-60, looked up, fragment) [[hexanoyl^0] hGRF(1-29)NH2]",D-IGF-I: increase in IGF-I levels from day 1 (pretreatment) to day 6,serum IGF-I [1],significantly increased IGF-I levels
same,"serum IGF-I, Day 2",serum IGF-I [2]; [5],281 ng/mL
same,"serum IGF-I, Day 3",serum IGF-I [2]; [5],299 ng/mL
same,"serum IGF-I, Day 4",serum IGF-I [2]; [5],319 ng/mL
same,"serum IGF-I, Day 5",serum IGF-I [2]; [5],342 ng/mL
same,"serum IGF-I, Day 1 (pretreatment)",serum IGF-I [2]; [5],248 ng/mL
same,increase in IGF-I levels,"serum IGF-I [2]; Experiment 1, day 4",29%
same,increase in IGF-I levels,"serum IGF-I [2]; Experiment 1, day 5",38%
same,"serum IGF-I, Day 2",serum IGF-I [2]; [6],327 ng/mL
same,"serum IGF-I, Day 3",serum IGF-I [2]; [6],337 ng/mL
same,"serum IGF-I, Day 4",serum IGF-I [2]; [6],338 ng/mL
same,"serum IGF-I, Day 5",serum IGF-I [2]; [6],366 ng/mL
same,"serum IGF-I, Day 6",serum IGF-I [2]; [6],350 ng/mL
same,"serum IGF-I, Day 1 (pretreatment)",serum IGF-I [2]; [6],303 ng/mL
same,"serum IGF-I, Day 2",serum IGF-I [2]; [7],341 ng/mL
same,"serum IGF-I, Day 3",serum IGF-I [2]; [7],368 ng/mL
same,"serum IGF-I, Day 4",serum IGF-I [2]; [7],362 ng/mL
same,"serum IGF-I, Day 5",serum IGF-I [2]; [7],362 ng/mL
same,"serum IGF-I, Day 6",serum IGF-I [2]; [7],368 ng/mL
same,"serum IGF-I, Day 1 (pretreatment)",serum IGF-I [2]; [7],302 ng/mL
same,"serum IGF-I, Day 2",serum IGF-I [2]; [8],275 ng/mL
same,"serum IGF-I, Day 3",serum IGF-I [2]; [8],319 ng/mL
same,"serum IGF-I, Day 4",serum IGF-I [2]; [8],354 ng/mL
same,"serum IGF-I, Day 5",serum IGF-I [2]; [8],350 ng/mL
same,"serum IGF-I, Day 6",serum IGF-I [2]; [8],374 ng/mL
same,"serum IGF-I, Day 1 (pretreatment)",serum IGF-I [2]; [8],252 ng/mL
same,"serum IGF-I, Day 2",serum IGF-I [2]; [9],292 ng/mL
same,"serum IGF-I, Day 3",serum IGF-I [2]; [9],292 ng/mL
same,"serum IGF-I, Day 4",serum IGF-I [2]; [9],315 ng/mL
same,"serum IGF-I, Day 5",serum IGF-I [2]; [9],347 ng/mL
same,"serum IGF-I, Day 6",serum IGF-I [2]; [9],356 ng/mL
same,"serum IGF-I, Day 1 (pretreatment)",serum IGF-I [2]; [9],272 ng/mL
same,increase in IGF-I levels,"serum IGF-I [2]; Experiment 3, day 5",28%
same,increase in IGF-I levels,"serum IGF-I [2]; Experiment 3, day 6",31%
"(Hexenoyl trans-3)0 hGRF (1-29) NH2 (YADAIFTNSYRKVLGQLSARKLLQDIMSR; HELM PEPTIDE1{[CC/C=C/CC(=O)[*:2]].Y.A.D.A.I.F.T.N.S.Y.R.K.V.L.G.Q.L.S.A.R.K.L.L.Q.D.I.M.S.R.[am]}$$$$V2.0; SMILES CC/C=C/CC(=O)N[C@@H](Cc1ccc(O)cc1)C(=O)N[C@@H](C)C(=O)N[C@@H](CC(=O)O)C(=O)N[C@@H](C)C(=O)N[C@H](C(=O)N[C@@H](Cc1ccccc1)C(=O)N[C@H](C(=O)N[C@@H](CC(N)=O)C(=O)N[C@@H](CO)C(=O)N[C@@H](Cc1ccc(O)cc1)C(=O)N[C@@H](CCCNC(=N)N)C(=O)N[C@@H](CCCCN)C(=O)N[C@H](C(=O)N[C@@H](CC(C)C)C(=O)NCC(=O)N[C@@H](CCC(N)=O)C(=O)N[C@@H](CC(C)C)C(=O)N[C@@H](CO)C(=O)N[C@@H](C)C(=O)N[C@@H](CCCNC(=N)N)C(=O)N[C@@H](CCCCN)C(=O)N[C@@H](CC(C)C)C(=O)N[C@@H](CC(C)C)C(=O)N[C@@H](CCC(N)=O)C(=O)N[C@@H](CC(=O)O)C(=O)N[C@H](C(=O)N[C@@H](CCSC)C(=O)N[C@@H](CO)C(=O)N[C@@H](CCCNC(=N)N)C(N)=O)[C@@H](C)CC)C(C)C)[C@@H](C)O)[C@@H](C)CC; UniProt P01286 32-60, looked up, fragment) [hexenoyl trans3-hGRF(1-29)NH2]",effect on GH area under the curve (0 to 300 minutes following injection),pig serum GH [3]; 0.25 μg/kg,significant response
same,effect on GH area under the curve (0 to 300 minutes following injection),pig serum GH [3]; 1 μg/kg,significant response
same,effect on GH area under the curve (0 to 300 minutes following injection),pig serum GH [3]; 4 μg/kg,significant response
same,GH response in the first 60 minutes,pig serum GH [3]; [10],moderate
same,duration of GH release following injection,pig serum GH [3]; [10],approximately 260 minutes
same,D-IGF-I: increase in IGF-I levels from day 1 (pretreatment) to day 6,serum IGF-I [1],significantly increased IGF-I levels
same,"effect on GH area under the curve, 0 to 420 minutes following injection",pig serum GH [4]; 5 μg/kg,significant increases of the GH AUC
same,"effect on GH area under the curve, 0 to 420 minutes following injection",pig serum GH [4]; 20 μg/kg,significant increases of the GH AUC
same,duration of GH response following administration,"pig serum GH [4]; one subcutaneous injection, 5 μg/kg, FIG. 4",240 min
